For test [1], the target named is T1, SGLT1 (Homo sapiens, UniProt P13866).
T1 sequence (P13866 1-664): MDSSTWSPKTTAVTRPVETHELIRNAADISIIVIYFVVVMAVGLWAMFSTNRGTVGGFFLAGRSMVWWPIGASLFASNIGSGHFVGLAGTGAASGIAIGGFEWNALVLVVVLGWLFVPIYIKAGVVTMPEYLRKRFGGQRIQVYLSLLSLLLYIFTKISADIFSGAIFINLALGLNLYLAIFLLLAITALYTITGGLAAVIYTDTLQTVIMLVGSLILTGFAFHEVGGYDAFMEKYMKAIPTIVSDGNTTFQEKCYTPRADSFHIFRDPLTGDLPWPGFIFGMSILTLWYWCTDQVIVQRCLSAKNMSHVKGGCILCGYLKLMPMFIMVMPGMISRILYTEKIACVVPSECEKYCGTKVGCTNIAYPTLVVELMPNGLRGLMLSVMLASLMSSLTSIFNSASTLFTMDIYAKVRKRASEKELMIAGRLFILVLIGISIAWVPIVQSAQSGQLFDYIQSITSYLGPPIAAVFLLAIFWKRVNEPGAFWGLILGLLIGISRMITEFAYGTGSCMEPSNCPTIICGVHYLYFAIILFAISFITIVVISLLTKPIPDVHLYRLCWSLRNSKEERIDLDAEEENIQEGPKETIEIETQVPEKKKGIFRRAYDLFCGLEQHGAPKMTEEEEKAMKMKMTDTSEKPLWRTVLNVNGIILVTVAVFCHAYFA
Put plainly: SGLT1 Inhibitor Activity Experiment 1. The test is classed as cell-based. How it is done: The inhibitory activity of SGLT1 was tested with reference to the method described in document (Journal of Medicinal Chemistry 2017, 60, 710-721, Discovery of LX2761, a Sodium-Dependent Glucose Cotransporter 1 (SGLT1) Inhibitor Restricted to the Intestinal Lumen, for the Treatment of Diabetes).

The next test concerns blood glucose. Put plainly: In vivo hypoglycemic efficacy experiment combined with sitagliptin, STZ-induced type 2 diabetes mouse model. Also on record: species or system Balb/C male mice. How it is done:
Model establishment: SPF grade Balb/C male mice were used in this experiment, and the establishment of the type 2 diabetes mouse model was induced by intraperitoneal injection of streptozotocin (STZ) supplemented by high-fat and high-sugar diet.
Administration: normal group, model group, low-dose combined administration group (the compound of Example 5 0.02 mg/kg+sitagliptin 20 mg/kg), medium-dose combined administration group (the compound of Example 5 0.06 mg/kg+sitagliptin 20 mg/kg), high-dose combined administration group (the compound of Example 5 0.1 mg/kg+sitagliptin 20 mg/kg), sitagliptin group (20 mg/kg). The normal group and the model group were given the solvent by gavage.

In test [2] the target is T1, SGLT1. Put plainly: HSGLT1 inhibitor activity experiment: 2-NBDG uptake by HEK293 cells stably expressing human SGLT1. The test is classed as cell-based. Set-up: expressed in transfected cells; host or cells: HEK293. How it is done:
Inhibitory activity testing was performed with reference to a similar method described in document (Acta Pharmaceutica Sinica 2017, 52(6):897-903; Nature Protocols (2007), 2(3), 753-762; Journal of Biochemical and Biophysical Methods (2005), 64(3), 207-215; Diabetes Technology & Therapeutics (2011), 13(7), 743-775).
In this experiment, the in vitro activity assay was evaluated using the uptake of 2-NBDG (2-Deoxy-2-[(7-nitro-2,1,3-benzoxadiazol-4-yl)amino]-D-glucose, CAS NO: 186689-07-6) by human embryonic kidney epithelial cells (HEK293, stably expressing human SGLT1), and the SGLT1 inhibitory activity of the target compound was determined by measuring its half-maximal inhibitory concentration (IC50).
HEK293 cells that can stably express human SGLT1 gene were inoculated into a 96-well clear-bottom black plates containing DMEM medium. The cells were incubated at 37° C., 5% CO2in a cell incubator. The medium in the 96-well plate was aspirated, and the plate was treated with low-glucose serum-free DMEM medium, and washed once with non-specific uptake buffer and once with Na^+-dependent uptake buffer. Uptake buffer containing test compound was added to each well of cells, followed by uptake buffer containing 2-NBDG for glucose uptake, and the cell plate was incubated at 37° C., 5% CO2. The compounds were gradiently diluted. The uptake reaction was stopped by removing the culture medium, and after washing the cells with ice-cold uptake buffer, the washing solution was removed. The cells were lysed by adding NaOH, and the content of 2-NBDG in the cells was detected by a fluorescence microplate reader. The protein concentration of the lysate was measured by BCA method, the uptake of 2-NBDG was quantified by fluorescence intensity/protein content, and the obtained data were analyzed using GraphPad Prism to determine the median inhibitory concentration (IC50) of the compound to be tested.

The text below walks through data of patent US12522628B2, “Aryl glucoside derivative and use thereof in drug” (SHANGHAI ZHEYE BIOTECHNOLOGY CO. LTD., priority 2020, dated 2026).

Consider `C#CCN(C)CCNC(=O)CCCc1ccc(Cc2cc([C@@H]3O[C@H](SC)[C@@H](O)[C@H](O)[C@H]3O)ccc2C)cc1` [Example 5], for which the IC50 is less than 50 nM at SGLT1 [1] and 0.37 nM at SGLT1 [2] (2-NBDG uptake, HEK293 stably expressing human SGLT1, read-out: SGLT1 Inhibitory Activity). In addition, the “dose-effect relationship of blood glucose reduction” value in the test on blood glucose (Example 5 0.02, 0.06, 0.1 mg/kg combined with sitagliptin 20 mg/kg) is “there is a dose-effect relationship”. In the test on blood glucose (Example 5 0.02, 0.06 or 0.1 mg/kg combined with sitagliptin 20 mg/kg), the “blood glucose level of diabetic model animals” value is reported as “significantly reduce the blood glucose level”. In addition, at SGLT1 [2], the “activity of inhibiting SGLT1 (in words)” value is on record as “significant activity of inhibiting SGLT1”.
